Measurements reported in patent publication US10487307B2, “Culture method for pluripotent stem cells” (FUJIFILM CORPORATION, priority 2013, dated 2019).

Legend:
human iPS cells = test: Cell adhesiveness evaluation 2 (synthetic peptides added to cells seeded on natural vitronectin); assay type: cell-based; settings: for adhesion of cells to the natural vitronectin on addition of peptide: 100 μM synthetic polypeptide; for Cell adhesion rate (%): 100 μM synthetic polypeptide in cell suspension, natural vitronectin surface 130 pmol/cm^2, 24 hours, no peptide = 100%, n=3
Protocol: The polypeptides shown in Table 8 were synthesized by an Fmoc solid-phase synthesis method. A surface onto which natural vitronectin was adsorbed at a concentration of 130 pmol/cm^2 was prepared, and then a cell suspension to which 100 μM of the aforementioned synthetic polypeptides were added was seeded into wells at a ratio of 30,000 cells/well. The number of adhesive cells 24 hours after seeding was calculated in the same manner as in <Cell adhesiveness evaluation 1>, and the results are shown in Table 8. In Table 8, the cell adhesion rate is expressed as a ratio calculated by regarding the cell adhesion rate obtained by using a culture solution not containing the synthetic polypeptides as being 100%. n=3.

human iPS cells ("Tic") [1] = test: Cell adhesiveness evaluation 1 (ALP activity of adhesive iPS cells); assay type: cell-based; settings: 30,000 cells/well, 24 hours, natural vitronectin (sample 15) = 100%
Protocol: The cell adhesiveness of human iPS cells (“Tic”: Cell No. JCRB 1331: from National Institute of Biomedical Innovation. [567-0085, 7-6-8 Asagi Saito Ibaraki-City Osaka]) with respect to the aforementioned polypeptides was evaluated in the following manner.
As feeder cells for retaining the human iPS cells, EmbryoMax (registered trademark) (early mouse embryonic fibroblasts: resistant to hygromycin, treated with mitomycin C, derived from C57/BL6, third passage) (Millipore Corporation) was used. By using DMEM (Invitrogen) and a 10% (v/v) fetal bovine serum medium, the feeder cells were cultured for 24 hours and attached to a T25 flask (Corning Incorporated). As a medium for the human iPS cells, the one obtained by adding FGF-2 (Sigma-Aldrich Co, LLC.) to a medium composed as shown in Table 6 at a final concentration of 10 ng/ml was used.
By using the aforementioned medium, the human iPS cells were retained and cultured in a 5% (v/v, the same unit will be used hereinafter) CO2 incubator at 37° C. Except for the day after the seeding of the iPS cells, the medium was replaced every day. The subculture operation was performed by exfoliating the cells by using Dispase II (neutral protease Grade II, Roche) and separating the cells in an appropriate size by a pipetting operation.
The iPS cells cultured as described above were treated with TrypLE Select (Invitrogen) for 5 minutes at 37° C. and separated into a single cell. After being subjected to centrifugation for 2 minutes at 300 rpm, the cells were collected and suspended in TeSR2 (a medium not containing a heterogeneous animal-derived component and a serum component, STEMCELL Technologies.) containing Y-27362 ((R)-(+)-trans-N-(4-pyridyl)-4-(1-aminoethyl)-cyclohexane carboxamide.2HCl.H2O, an Rho binding kinase inhibitor, Wako Pure Chemical Industries, Ltd.) at a final concentration of 10 μM.
Each of RCP-1 to RCP-11, RCP-21, RCP-25, and RCP-26 as control, human vitronectin (extracted from human serum, BD Biosciences), and recombinant laminin (rLaminin-5: Oriental Yeast Co., ltd. and Human Recombinant Laminin-511: BIOLAMINA AB) was added to and suspended in a predetermined buffer (a dialysis buffer used in <GRAVY value and aggregation characteristics> described above for RCP-1 to RCP-11, and PBS for RCP-21, RCP-25, human vitronectin, and recombinant laminin) at the concentration shown in Table 7, thereby preparing samples 1 to 17. The samples were added to the respective wells of a 96-well plate and adsorbed onto the plate by being held for 2 hours at 37° C.
Into the respective wells of the 96-well plate treated with the peptides, iPS cells were seeded at a cell density of 30,000 cells/well. After the cells were cultured for 24 hours, the nonadhesive cells were washed off with PBS, and only the adhesive cells were immobilized by using 4% (v/v) paraformaldehyde (Wako Pure Chemical Industries, Ltd.). By using an Attophos (registered trademark) AP Fluorescent Substrate System (Promega Corporation), the ALP activity was calculated, and from the calibration curve, the number of undifferentiated iPS cells having the ALP activity was calculated. In Table 7, the cell adhesion rate is expressed as a ratio calculated by regarding the cell adhesion rate obtained from the sample 15 using natural vitronectin as being 100%. n=3.

iPS cells [2] = test: Growth evaluation, number of cells after 3 days; assay type: cell-based, human; settings: added amount 1.28 μg/cm^2; 5,000 cells/well; sample 1 (RCP-1) = 100%
Protocol: By adding RCP-1 to RCP-11 and Human Recombinant Laminin-511 as control at the concentration shown in Table 9, samples 1 to 12 were prepared. The samples were seeded into a 96-well plate, onto which each of the polypeptides was adsorbed in the same manner as in <Cell adhesiveness evaluation 1>, at a ratio of 5,000 cells/well and cultured for 3 days in a CO2 incubator at 37° C. The number of cells after 3 days was calculated in the same manner as in <Cell adhesiveness evaluation 1>. In Table 9, the number of cells after 3 days is expressed as a ratio calculated by regarding the number of cells obtained by using the sample 1 as being 100%.

human iPS cells ("Tic") [3] = test: Cell growth property evaluation 1 (different media); assay type: cell-based; settings: for Cell growth rate: laminin 20 μg/ml, 72 hours, RCP-11 with Essential 8 = 100%, n=3
Protocol: Furthermore, for evaluation, human iPS cells (“Tic”) that were retention-cultured as described in <Cell adhesiveness evaluation 1> of reference example were treated with TrypLE Select (Invitrogen) for 5 minutes at 37° C. and separated into a single cell. After being subjected to centrifugation for 2 minutes at 300 rpm, the cells were collected, suspended in each medium, and used for the evaluation in each example. Herein, Y-27362 ((R)-(+)-trans-N-(4-pyridyl)-4-(1-aminoethyl)-cyclohexane carboxamide.2HCl.H2O, an Rho binding kinase inhibitor, Wako Pure Chemical Industries, Ltd.) was added to all of the media at a final concentration of 10 μM.
Each of RCP-11, RCP-5, and recombinant laminin (Human Recombinant Laminin-511: BIOLAMINA AB) as control was added to and suspended in a predetermined buffer (a dialysis buffer used in <GRAVY value and aggregation characteristics> of reference examples for RCP-11 and RCP-5, and PBS for the recombinant laminin) at the final concentration shown in Table 11, thereby preparing polypeptide solutions. The polypeptide solutions were added to the respective wells of a plasma-treated 96-well plate made of polystyrene (BD Falcon) having a plasma-treated cell culture surface and held as they were so as to be adsorbed onto the plate for 2 hours at 37° C. In this way, a peptide-treated 96-well plate having a polypeptide-coated surface was obtained. The iPS cells suspended in the respective media shown in Table 11 were seeded into the respective wells of the obtained peptide-treated 96-well plate at a cell density of 10,000 cells/well. After the cells were cultured for 72 hours, nonadhesive cells were washed off with PBS, and only adhesive cells were immobilized using 4% by mass of paraformaldehyde (Wako Pure Chemical Industries, Ltd.). By using an Attophos (registered trademark) AP Fluorescent Substrate System (Promega Corporation), the ALP activity was calculated, and from the calibration curve, the number of undifferentiated iPS cells having the ALP activity was calculated. In Table 11, the cell adhesion rate is expressed as a ratio calculated by regarding the number of pluripotent stem cells after the culture for 72 hours in a combination of RCP-11 and Essential 8 as being 100%. n=3.
In Table 11, “% by mass” in the concentration of 2-meracptoethanol is a proportion (w/v %) of mass (g) of 2-meracptoethanol per 100 mL of the total volume of the medium at the time of culture.

iPS cells [4] = test: Cell growth property evaluation 2 (2-mercaptoethanol concentration in Essential 8); assay type: cell-based, human; settings: for Cell growth rate: laminin 20 μg/ml, 72 hours
Protocol: A cell culture surface coated with RCP-11 was prepared in the same manner as in <Cell growth property evaluation 1> of Example 1. iPS cells collected in the same manner as in <Cell growth property evaluation 1> were suspended in the respective media composed as shown in Table 12 and seeded into wells at a cell density of 10,000 cells/well. After the cells were cultured for 72 hours, the number of cells were quantified in the same manner as in <Cell growth property evaluation 1>, and the cell growth properties were evaluated based on a cell growth rate which is a ratio calculated by regarding the number of cells cultured using RPC-11 as being 100%.

Substance: CCTDYTAECKPQVTRGDVFT (Peptide designed for comparative tests (Peptide-5))
- adhesion of cells to the natural vitronectin on addition of peptide (human iPS cells): significantly hindered
- Cell adhesion rate (%) (human iPS cells): 70.5 ± 7.1%

Substance: CCTDYTAECKPQVTRGEVFT (Peptide designed for comparative tests (Peptide-7))
- adhesion of cells to the natural vitronectin on addition of peptide (human iPS cells): not hindered
- Cell adhesion rate (%) (human iPS cells): 86.7 ± 7.1%

Substance: DKKCQCDELCSYYQSCCTDY (Peptide designed for comparative tests (Peptide-4))
- adhesion of cells to the natural vitronectin on addition of peptide (human iPS cells): significantly hindered
- Cell adhesion rate (%) (human iPS cells): 63.8 ± 11.6%

Substance: DQESCKGRCTEGFNVDKKCQ (Peptide designed for comparative tests (Peptide-1))
- adhesion of cells to the natural vitronectin on addition of peptide (human iPS cells): not hindered
- Cell adhesion rate (%) (human iPS cells): 91.8 ± 1.2%

Substance: EGFNVDKKCQCDELCSYYQS (Peptide designed for comparative tests (Peptide-3))
- adhesion of cells to the natural vitronectin on addition of peptide (human iPS cells): not hindered
- Cell adhesion rate (%) (human iPS cells): 102.5 ± 4.2%

Substance: KGRCTEGFNVDKKCQCDELC (Peptide designed for comparative tests (Peptide-2))
- adhesion of cells to the natural vitronectin on addition of peptide (human iPS cells): not hindered
- Cell adhesion rate (%) (human iPS cells): 92.7 ± 19.6%

Substance: Laminin-511: recombinant laminin (Human Recombinant Laminin-511: BIOLAMINA AB)
- Cell adhesion rate (%) (human iPS cells ("Tic") [1]; added amount 5.0 μg/cm^2): 142.0%
- Number of cells after 3 days (%) (iPS cells [2]): 56.8%
- cell growth properties with Essential 8 or NutriStem not containing 2-mercaptoethanol versus media containing it (human iPS cells ("Tic") [3]; Table 11): a clear correlation could not be confirmed
- Cell growth rate (human iPS cells ("Tic") [3]; medium Essential8, 2-mercaptoethanol 0): 45.9%
- Cell growth rate (human iPS cells ("Tic") [3]; medium NutriStem, 2-mercaptoethanol 0): 98.8%
- Cell growth rate (human iPS cells ("Tic") [3]; medium ReproFF2, 2-mercaptoethanol 102.4 μM (0.0008% by mass)): 93.9%
- Cell growth rate (human iPS cells ("Tic") [3]; medium StemPro hESC SFM, 2-mercaptoethanol 100 μM (0.00078% by mass)): 103.7%
- Cell growth rate (human iPS cells ("Tic") [3]; medium TeSR2, 2-mercaptoethanol 48.6 μM (0.00038% by mass)): 14.4%
- Cell growth rate (iPS cells [4]; Essential8, 2-mercaptoethanol 0): 45.9%
- Cell growth rate (iPS cells [4]; Essential8, 2-mercaptoethanol 10 μM (0.0000078% by mass)): 48.6%
- Cell growth rate (iPS cells [4]; Essential8, 2-mercaptoethanol 10 μM (0.000078% by mass)): 48.1%
- Cell growth rate (iPS cells [4]; Essential8, 2-mercaptoethanol 100 μM (0.00078% by mass)): 44.6%
- Cell growth rate (iPS cells [4]; Essential8, 2-mercaptoethanol 1 mM (0.0078% by mass)): 40.9%
- Cell growth rate (iPS cells [4]; Essential8, 2-mercaptoethanol 10 mM (0.078% by mass)): 39.3%
- dependence of cell growth properties on the concentration of 2-mercaptoethanol (iPS cells [4]; Table 12): such characteristics were not observed

Substance: TAECKPQVTRGDVFTMPEDE (Peptide designed for comparative tests (Peptide-6))
- adhesion of cells to the natural vitronectin on addition of peptide (human iPS cells): significantly hindered
- Cell adhesion rate (%) (human iPS cells): 52.7 ± 10.3%

Substance: TAECKPQVTRGEVFTMPEDE (Peptide designed for comparative tests (Peptide-8))
- adhesion of cells to the natural vitronectin on addition of peptide (human iPS cells): not hindered
- Cell adhesion rate (%) (human iPS cells): 83.8 ± 14.8%

Substance: rLaminin-5: recombinant laminin (rLaminin-5: Oriental Yeast Co., ltd.)
- Cell adhesion rate (%) (human iPS cells ("Tic") [1]; added amount 3.2 μg/cm^2): 155.7%
